{
  "source": "patent US20250340511A1",
  "about": "“CELLULOSE SYNTHASE INHIBITORS AS A NEW CLASS OF HERBICIDE AND NON-GMO CROPS THAT ARE RESISTANT TO THE HERBICIDE” (Purdue Research Foundation, priority 2017, published 2025)",
  "key": {"[1]": {"test_system": "fra5 (CesA7 P557T) plants", "assay": "growth response of fra5 mutant to ES20", "type": "in vivo, Arabidopsis thaliana", "from_the_text": "(§1) FIG. 6A. Seedlings of Wildtype and fra5 grown on growth media supplemented with DMSO or ES20. FIG. 6B. Seedlings of Wildtype and any1 grown on growth media supplemented with DMSO or ES20. FIGS. 6C, 6D, 6E and 6F depict quantification on the growth of wildtype, […] and any/in the presence or absence of ES20.\n(§2) Due to the conservation of plant CesAs in their central cytoplasmic domains, we hypothesized that ES20 targeted multiple CesAs to inhibit growth. In order to test this hypothesis, we tested the response of fra5 and any/to ES20. The mutant fra5 carries a mutation of P557T in Arabidopsis thaliana CesA7. CesA7 P557 aligns to CesA6 P595. […] The mutant any/carries a mutation of D604N in Arabidopsis CesA1. D604 in CesA1 aligns to D605 in CesA6."}, "[2]": {"test_system": "cesa6 E929K mutant and transgenic plants that express CesA6 E929K in wildtype", "assay": "root growth of cesa6 E929K mutant and CesA6 E929K transgenic plants", "type": "in vivo", "conditions": "Arabidopsis thaliana; 1 μM of ES20; read-out: root length relative to plants grown on normal media", "from_the_text": "The root length of […] mutant and transgenic plants that express CesA6^E929K in wildtype is about 80% of those grown on normal media.\nThe mutations we found are located in Arabidopsis thaliana CesA6 (AT5G64740), CesA4 (AT5G44030), CesA7 (AT5G17420) and CesA8 (AT4G18780) genes. Single nucleotide change in these mutants causes single amino acid change in CesA proteins and lead to reduced sensitivity to cellulosin (endosidin20 or ES20). The mutations we have discovered are listed in Table 1 and FIG. 11A showing the conserved amino acid residues of those subtypes of cellulose synthases. […] One is to create mutations in CesA6 homology gene in crop. The second is to express the mutant CesA6 in crops without knocking out endogenous CesA genes."}, "[3]": {"target": "T1, CesA6 central cytoplasmic domain (Arabidopsis thaliana, UniProt Q94JQ6)", "T1 construct": "we expressed and purified the central cytoplasmic domain of CesA6 from E. coli; made in house; host or cells: E. coli", "T1 sequence (Q94JQ6 322-868 limits assumed)": "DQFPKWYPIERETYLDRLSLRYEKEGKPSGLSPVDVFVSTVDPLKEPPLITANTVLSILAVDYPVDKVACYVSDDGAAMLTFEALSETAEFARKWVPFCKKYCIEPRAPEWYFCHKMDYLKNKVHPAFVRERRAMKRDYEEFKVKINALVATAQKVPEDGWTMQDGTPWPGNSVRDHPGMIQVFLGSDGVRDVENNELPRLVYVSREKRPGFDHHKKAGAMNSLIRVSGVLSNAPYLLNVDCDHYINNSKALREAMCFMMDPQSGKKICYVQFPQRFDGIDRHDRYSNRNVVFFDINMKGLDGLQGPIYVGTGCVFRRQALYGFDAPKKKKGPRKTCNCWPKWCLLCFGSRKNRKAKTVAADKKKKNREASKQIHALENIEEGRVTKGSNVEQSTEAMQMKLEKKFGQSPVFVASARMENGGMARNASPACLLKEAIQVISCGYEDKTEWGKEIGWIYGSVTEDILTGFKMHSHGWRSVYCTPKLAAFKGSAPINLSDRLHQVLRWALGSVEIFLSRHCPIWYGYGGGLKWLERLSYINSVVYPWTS", "assay": "biochemical", "type": "binding", "conditions": "MST; SUMO-His / GFP tagged CesA6 central cytoplasmic domain purified from E. coli; read-out: dissociation constant (Kd)"}, "tomato": {"test_system": "tomato", "assay": "tomato growth on media containing ES20", "type": "in vivo", "conditions": "grown on growth media containing ES20", "from_the_text": "(§3) FIG. 8B depicts 16-day-old tomato and horseweed grown on the media in the absence and presence of Cellulosin. Bars, 1 cm.\n(§4) Because cellulose synthase is highly conserved in plants and ES20 targets the conserved catalytic domain, we hypothesize that ES20 is active in different plants, including common weeds. We tested this hypothesis by growing tomato and horseweed on growth media containing ES20."}, "horseweed": {"test_system": "horseweed", "assay": "horseweed growth on media containing ES20", "type": "in vivo", "conditions": "grown on growth media containing ES20", "from_the_text": "as §3, §4"}, "[4]": {"test_system": "wildtype Arabidopsis seedlings", "assay": "Arabidopsis seedling root growth on media supplemented with compound", "type": "in vivo, Arabidopsis thaliana", "conditions": "for activity at 1 µM: Arabidopsis thaliana", "procedure": "FIG. 2A. […] FIG. 2B. […] FIG. 2C. Quantification on the root length of 6 days old wildtype and mutant seedlings grown on growth media supplemented with DMSO solvent control. FIG. 2D. […] FIG. 2E. The ratio of root length from plants grown on 1 μM ES20 and those grown on DMSO for each genotype. The root length of wildtype plants grown on 1 μM ES20 was reduced to about 25% of those grown on DMSO. […] FIG. 2F.\nThe root length of wildtype plants grown on 1 μM ES20 is about 20% of those that are grown on normal media.\nIndividual hypocotyl epidermal cells from plants grown on ES20 media are swollen as well in compare with those grown on regular media (FIG. 1H). These growth assays indicate that ES20 inhibits cell growth and causes cells to grow in an isotropic manner instead of anisotropic manner. The composition and organization of cell wall determines plant cell shapes.\nIn order to identify the cell growth pathways that are targeted by ES20, we performed a chemical genetic screen for mutants that have reduced sensitivity to this growth inhibitor. […] However, we found plants that have normal green cotyledons and leaves and elongated roots. These plants became obviously heathier and stronger than other plants after two weeks of growth on ES20 and were transferred to soil to get the M3 population. […] We generated the mapping population and used high-throughput whole genome sequencing to clone the mutant genes. […] 10 out of the 12 mutants were in CesA6 and two in CesA7. After two times of backcrosses, we consistently detected less sensitivity in these mutants to ES20 (FIGS. 2A to 2E).\nIn order to identify key structure in ES20 that causes its inhibition activity, we collected three close analogs of ES20 (FIG. 7A) and tested for their effect in inhibiting plant growth."}, "[5]": {"test_system": "any1 (CesA1 D604N) plants", "assay": "growth response of any1 mutant to ES20", "type": "in vivo, Arabidopsis", "from_the_text": "as §1, §2"}, "tobacco pollen tube": {"test_system": "tobacco pollen tube", "assay": "tobacco pollen growth assay", "type": "cell-based", "conditions": "in vitro culture", "procedure": "(§5) In order to identify small molecules that could be used in studying plant membrane trafficking, chemical libraries have been screened first using tobacco pollen growth assay and then Arabidopsis live cell imaging assay (Drakakaki G. et al., Proc Natl Acad Sci USA 2011, 108, 17850-17855). In primary screen, small molecules that inhibited pollen gemination or pollen tube growth in in vitro culture condition were selected. For secondary screen, selected small molecules were tested in Arabidopsis plants expressing different fluorescence-tagged cellular markers. […] Locations of general organelle markers, such as HDEL-GFP (Endoplasmic Reticulum, ER), Gop1p-YFP (Golgi), SYP61-CFP (Trans-Golgi Network, TGN) and VHA1-GFP (TGN), are unaffected as well by ES20 treatment (FIGS. 9A and 9B)."}, "[6]": {"test_system": "general membrane trafficking (PIN2, BRI1, HDEL-GFP, Gop1p-YFP, SYP61-CFP, VHA1-GFP)", "assay": "live cell imaging of fluorescence-tagged cargo and organelle markers", "type": "cell-based, Arabidopsis", "procedure": "Transgenic plants expressing different fluorescence-tagged proteins were examined for their cellular localization in the DMSO control treatment and after 2 hours of 5 μM ES20 treatment.\nas §5"}, "[7]": {"test_system": "dark-grown Arabidopsis hypocotyls", "assay": "crystalline cellulose content in dark-grown seedlings", "type": "in vivo, Arabidopsis thaliana", "conditions": "concentration printed as 'M ES20'", "from_the_text": "Swollen cells and organs in plants are often caused by direct or indirect disruption of cell wall biosynthesis or organization. For example, swollen cells and roots have been found in cesa mutants and in plants treated with inhibitors of cellulose synthesis and microtubule organization (Arioli, T., et al., Science 1998, 279, 717-720; Burn, J. E., et al., Plant Physiol. 2002, 129, 797-807). The retarded growth and cell swollen phenotypes indicate that ES20 could affect cell growth through interfering with cell wall biosynthesis or organization. To test whether ES20 affects cell wall composition, we took the straightforward approach of analyzing crystallize cellulose content in seedlings grown in the presence of different concentrations of ES20 (Updegraff, D. M. Anal. Biochem. 1969, 32, 420-424). […] The content of crystalline cellulose in seedlings grown on M ES20 was reduced to about 50% of the seedlings grown in the absence of ES20 (FIG. 1J)."}, "[8]": {"test_system": "CSC (YFP-CesA6) trafficking in root epidermal cells", "assay": "YFP-CesA6 localization and FRAP after short-term ES20 treatment", "type": "cell-based, Arabidopsis", "from_the_text": "FIGS. 5A and 5B. […] FIGS. 5C and 5D. […] FIGS. 5E and 5F. The exocytic delivery of CSC to the plasma membrane was reduced after ES20 treatment. *** indicates p<0.001 by paired t-test.\nA large knowledge gap in plant biology is that it is […] how the activities of large protein complexes, such as CSC, are integrated with their cellular transport. Golgi localized CSCs are delivered to the plasma membrane to catalyze cellulose synthesis. CSCs are also localized to some small vesicles named SmaCCs. It is not known what occurs to CSCs when the catalytic core fails to bind a functional substrate. In order to understand better on the integration of CSC catalytic activity and CSC trafficking, we took a straight approach and observed the localization of CesA6 after short-term ES20 treatment. […] Reduced CSC density at the plasma membrane and increased SmaCCs density could be the result of increased endocytosis or decreased exocytic delivery of CSC. We then performed fluorescence recovery after photobleaching experiment to test whether the exocytic delivery of CSC was affected by ES20 treatment. We bleached YFP-CesA6 fluorescence at the plasma membrane and then observed the delivery of new CSC to the plasma membrane (FIG. 5D)."}},
  "note": "Like-named read-outs stand apart in the source and are kept apart here.",
  "data": [
    {"compound": "COc1ccc(C(=O)NC(=S)NNC(=O)c2ccccc2C)cc1", "note": "[ES20]", "values": [
      {"measurement": "sensitivity of fra5 plants to ES20", "setting": "[1]", "result": "reduced sensitivity to ES20"},
      {"measurement": "activity at 1 µM", "setting": "[2]", "result": "~80", "unit": "%"},
      {"measurement": "Kd", "setting": "[3]", "result": "15.4 ± 5.9", "unit": "µM"},
      {"measurement": "growth inhibition of tomato", "setting": "tomato", "result": "significantly inhibit the growth"},
      {"measurement": "growth inhibition of horseweed", "setting": "horseweed", "result": "significantly inhibit the growth"},
      {"measurement": "root phenotype after short-term treatment", "setting": "[4]; 5 μM for 12 hours in liquid growth media", "result": "roots became swollen in the tip region"},
      {"measurement": "activity at 1 µM", "setting": "[4]; 144 h, read-out: root length relative to plants grown on DMSO", "result": "~25", "unit": "%"},
      {"measurement": "activity at 1 µM", "setting": "[4]; read-out: root length relative to plants grown on normal media", "result": "~20", "unit": "%"},
      {"measurement": "hypocotyl phenotype of seedlings grown under dark condition", "setting": "[4]; dark-grown, dosage dependent", "result": "shorter and swollen hypocotyls"},
      {"measurement": "root growth arrest", "setting": "[4]; wild type plants, 5 μM", "result": "completely arrests root growth"},
      {"measurement": "root phenotype of seedlings grown on media with compound", "setting": "[4]; wildtype, dosage dependent", "result": "shorter and swollen roots"},
      {"measurement": "sensitivity of any1 plants to ES20", "setting": "[5]", "result": "less sensitive to ES20"},
      {"measurement": "tobacco pollen tube growth", "setting": "tobacco pollen tube", "result": "inhibited tobacco pollen tube growth"},
      {"measurement": "trafficking of cargo proteins PIN2 and BRI1", "setting": "[6]", "result": "did not significantly affect the trafficking"},
      {"measurement": "locations of general organelle markers (ER, Golgi, TGN)", "setting": "[6]; 2 hours of 5 μM ES20 treatment (FIGS. 9A, 9B)", "result": "unaffected"},
      {"measurement": "content of crystalline cellulose relative to seedlings grown in the absence of ES20", "setting": "[7]", "result": "about 50%"},
      {"measurement": "density of plasma membrane localized CesA6", "setting": "[8]; root epidermal cells, short-term ES20 treatment", "result": "significantly reduced"},
      {"measurement": "numbers of SmaCCs that contain CesA6", "setting": "[8]; short-term ES20 treatment", "result": "significantly increased"},
      {"measurement": "CSC delivery to the plasma membrane (FRAP)", "setting": "[8]; versus DMSO control", "result": "significantly lower than the DMSO control"}
    ]}
  ]
}
